In PMC12069643, “Structural insights into the selective recognition of RF-amide peptides by neuropeptide FF receptor 2” (EMBO Reports, 2025):

Legend:
[1] = biological target: T1, NPFFR1-chimera (Q37^NtL/I293^6.58S/T307^7.31N) (Homo sapiens, UniProt Q9GZQ6, I293S/Q37L/T307N); experiment: GloSensor forskolin-stimulated cAMP assay, NPFFR1 triple mutant (chimera Q37NtL/I2936.58S/T3077.31N); format: cell-based; conditions: HEK293T, 0.5 μM forskolin, three independent experiments
T1 construct: expressed in transfected cells; host or cells: HEK293T
T1 sequence (Q9GZQ6 whole entry Q37L/I293S/T307N): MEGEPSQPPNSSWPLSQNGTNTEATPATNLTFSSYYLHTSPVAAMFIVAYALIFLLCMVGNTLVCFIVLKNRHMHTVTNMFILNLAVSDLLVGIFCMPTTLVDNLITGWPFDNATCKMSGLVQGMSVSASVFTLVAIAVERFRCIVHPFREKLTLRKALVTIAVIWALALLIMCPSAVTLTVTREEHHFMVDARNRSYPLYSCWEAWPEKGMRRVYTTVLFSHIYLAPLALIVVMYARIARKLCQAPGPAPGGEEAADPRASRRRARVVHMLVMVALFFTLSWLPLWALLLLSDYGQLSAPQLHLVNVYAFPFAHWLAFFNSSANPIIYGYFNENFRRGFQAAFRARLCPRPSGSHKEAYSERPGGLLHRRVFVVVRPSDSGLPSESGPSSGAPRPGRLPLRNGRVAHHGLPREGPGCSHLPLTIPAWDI
Experimental: (§1) Figure 4 RF-amide ligand selectivity of NPFFR2 and NPFFR1. (A) Sequence alignment between human NPFFs and RFRPs, the endogenous ligands of NPFFRs, which share PXRF-NH2 motif at their C-terminus (shown in green letters). Key residues at the fifth and sixth positions from the C-terminus, are highlighted in bold. […] (B) The concentration-dependent response of various agonists on NPFFR1 was measured using a forskolin-stimulated cAMP assay. Data points represent the mean values from three independent experiments (each with technical triplicate), with error bars indicating SEM. Raw data were normalized to the vehicle-treated (0%) and 0.5 μM forskolin-treated (100%) responses. (C) Structural comparison between the binding modes of hNPSF to NPFFR2 and GnIH to NPFFR1. An AlphaFold2 prediction model of the GnIH–NPFFR1 complex was generated using the hNPSF–NPFFR2 complex structure as a template. The hydrophobicity of NPFFRs is shown with surface representation, where purple indicates hydrophilic regions and bronze indicates hydrophobic regions. […] (D) The cAMP response to the ligands hNPSF and GnIH was measured for both wild-type NPFFR1 and a mutant form of NPFFR1 using a forskolin-stimulated cAMP assay. […] Symbols represent mean values from three independent experiments, each conducted in technical triplicates, with error bars indicating SEM. Responses were normalized to vehicle-treated controls (0%) and 0.5 μM forskolin-treated controls (100%). Source data are available online for this figure.
To further validate whether these specific residues in NPFFR1 affect ligand selectivity, we generated a triple mutant of NPFFR1, in which residues Q37^Nt, I293^6.58, and T307^7.31 of NPFFR1 were replaced by the corresponding NPFFR2 residues, Leu, Ser, and Asn, respectively (Appendix Fig. S10). […]
HEK293T cells were seeded at a density of 6 × 10^5 cells per well in a six-well cell culture plate (SPL) and co-transfected with expression plasmids encoding GloSensor™ and each NPFFR construct, using 1 µg to 4 µg of DNA per well according to the Lipofectamine™ 2000 Transfection Reagent (Invitrogen) protocol. […] Luminescence signals were measured using a Mithras LB940 instrument (Berthold) with a measurement time of 1 s per well.
Data from the GloSensor^TM cAMP signaling assays were analyzed using GraphPad Prism with a three-parameter logistic model to fit concentration-response curves for both wild-type (WT) and mutant receptors. Mutant expression levels and DNA amounts were adjusted to match WT conditions. ΔpEC50 values were calculated by subtracting the log EC50 of the WT receptor from that of each mutant. […] Statistical significance was assessed using one-way ANOVA, followed by Dunnett’s tests comparisons to the WT receptor. […]

[2] = biological target: T2, human NPFFR1 (Homo sapiens, UniProt Q9GZQ6); experiment: GloSensor forskolin-stimulated cAMP assay, NPFFR1 wild-type; format: cell-based; conditions: NPFFR1 wild-type, HEK293T, 0.5 μM forskolin, three independent experiments
T2 construct: expressed in transfected cells; host or cells: HEK293T (pcDNA3.1 NPFFR1)
T2 sequence (Q9GZQ6 whole entry): as the sequence (Q9GZQ6 whole entry Q37L/I293S/T307N) above, with L37Q, S293I, N307T counted along it
Experimental: as §1, with “(A) Sequence alignment between human NPFFs and RFRPs, the endogenous ligands of NPFFRs, which share PXRF-NH2 motif at their C-terminus (shown in green letters).” left out
HEK293T cells were seeded at a density of 6 × 10^5 cells per well in a six-well cell culture plate (SPL) and co-transfected with expression plasmids encoding GloSensor™ and each NPFFR construct, using 1 µg to 4 µg of DNA per well according to the Lipofectamine™ 2000 Transfection Reagent (Invitrogen) protocol. After 48 h of incubation under standard conditions (37 °C, 5% CO2), the cells were detached using Accutase solution (Sigma-Aldrich) and washed with PBS. The cells were then pelleted by centrifugation, resuspended in CO2-independent medium (Gibco) supplemented with Firefly D-Luciferin (0.5 mg/ml, NanoLight), and distributed into a 96-well white plate (SPL). After a 2-hour incubation, serially diluted ligands and 0.5 μM forskolin were added to each well to detect ligand-induced signaling. Luminescence signals were measured using a Mithras LB940 instrument (Berthold) with a measurement time of 1 s per well.
Data from the GloSensor^TM cAMP signaling assays were analyzed using GraphPad Prism with a three-parameter logistic model to fit concentration-response curves for both wild-type (WT) and mutant receptors. Mutant expression levels and DNA amounts were adjusted to match WT conditions. ΔpEC50 values were calculated by subtracting the log EC50 of the WT receptor from that of each mutant. Results are presented as mean ± SEM from three independent biological replicates, each performed in duplicate or more. Error bars represent the SEM. Statistical significance was assessed using one-way ANOVA, followed by Dunnett’s tests comparisons to the WT receptor. Significance levels were reported as follows: ns (not significant, P > 0.05); *P < 0.05; **P < 0.01; ***P < 0.001.

- EC50 [1]: 31.6 nM
- Emax ([1]; HEK-293T): 78 ± 2%
- Emax ([2]; HEK-293T, read-out: Emax ± SEM): 83 ± 1%
- EC50 ([2]; read-out: pEC50 ± SEM (converted)): 79.4 nM
Compound: CC(C)C[C@H](NC(=O)[C@H](Cc1ccccc1)NC(=O)[C@H](C)NC(=O)[C@H](CCC(N)=O)NC(=O)[C@@H](N)CO)C(=O)N[C@@H](Cc1ccccc1)C(=O)N[C@@H](CCC(N)=O)C(=O)N1CCC[C@H]1C(=O)N[C@@H](CCC(N)=O)C(=O)N[C@@H](CCCNC(=N)N)C(=O)N[C@@H](Cc1ccccc1)C(N)=O [hNPSF]
